{"source": "patent US7138151B2", "about": "“Calcium-fortified acidic beverages” (Unilab Pharmatech, Ltd., priority 2002, dated 2006)", "origin": "cited, not measured here", "details": "initially clear metastable solution from citric acid and calcium base", "data": [{"smiles": "O=C([O-])CC(O)(CC(=O)[O-])C(=O)[O-].O=C([O-])CC(O)(CC(=O)[O-])C(=O)[O-].[Ca+2].[Ca+2].[Ca+2]", "note": "[in-situ solubilized calcium citrate, calcium citrate]", "values": [{"measurement": "time at which calcium citrate starts to precipitate out of solution", "result": "≤ 24", "unit": "h"}]}]}
